Measurements published in publication PMC3006138, “Fexinidazole – A New Oral Nitroimidazole Drug Candidate Entering Clinical Development for the Treatment of Sleeping Sickness” (PLoS Neglected Tropical Diseases, 2010).
“Also recorded” adds a separate entry of the source.

Key:
[1] = Hepatocyte intrinsic clearance and metabolite profile; format: in vitro ADME, human; conditions: human, cryopreserved pooled hepatocytes, 1 µM
Method: Fexinidazole was incubated with cryopreserved hepatocytes from male CD-1 mice, male Sprague Dawley rats, male beagle dogs, male cynomolgus monkeys, and from pooled white or African-American human donor samples (purchased commercially), at concentrations of 1 µM and 10 µM. […] The incubated samples were analyzed by LC-MS after extraction into acetonitrile.
A quality control analysis of fexinidazole was performed via 1H-NMR in DMSO and LC- […]
provided by the Swiss Tropical Institute (Basel, Switzerland).
Reagents and solvents were of analytical grade and obtained from Sigma-Aldrich (St. Louis, […]
Cryopreserved hepatocytes from the male CD1 mouse, lot CSI; male Sprague Dawley rat, lot LPL; male beagle dog, lot BWX; male cynomolgus monkey, lot EHH; and pooled human samples, lot MJI, were purchased from In Vitro Technologies Inc (Baltimore, Maryland, […]
5.4. In vitro Incubations
On the day of the experiment a 10 mM stock solution of fexinidazole in DMSO was prepared and, within 3 hours, aliquots of this freshly prepared solution, after suitable dilution, were added to the incubation matrix, to reach fexinidazole final concentrations of 1 and 10 µM. The final percentage of DMSO was 0.01% in the incubation samples for the […]
On the day of experiment, the cryopreserved hepatocytes were thawed following the detailed instructions provided by the supplier.
The number of viable cells was determined using a Trypan Blue exclusion method.
5.4.1. Intrinsic Clearance Study […]
µM with mouse, rat, dog, monkey and human hepatocytes (300000 cells/mL for the mouse and 1 million cells/mL for the other species) in a final incubation volume of 0.75 mL […]
Incubations were performed in duplicate in a 48-well plate under shaking. Sampling was performed using an automatic liquid handling system (Multiprobe II EX, Packard). At 0, 1, 5, 10, 15, 20, 30, 60 and 120 minutes, 50 µL aliquots of the incubates were taken, then 80 µL of ice-cold acetonitrile and 20 µL of 1 µM warfarin in acetonitrile (internal standard) were added, and samples centrifuged at 2000 rpm for 20 min. The supernatant was analyzed by LC-MS/MS. […]
the medium alone at t = 0 and 120 minutes.
For the determination of phase I and phase II activity of hepatocytes, 7-ethoxycoumarin (7-EC) 1 µM, and 7-hydroxycoumarin (7-HC) 30 µM were used as positive controls and incubated under the same conditions as fexinidazole. Aliquots of incubates were taken at 0, 10, 20, 30, 60 and 120 minutes and processed as fexinidazole samples.
5.4.2. Metabolite Profile Study
For metabolite profiling, fexinidazole was incubated at a concentration of 10 µM with mouse, rat, dog, monkey and human hepatocytes (300000 cells/mL for the mouse and 1 million cells/mL for the other species) in a final incubation volume of 2 mL Leibovitz L-15 […]
Aliquots of the incubation samples were taken at t = 0, 30 and 120 minutes; the metabolism was stopped by the addition of an equal volume of cold acetonitrile and the samples centrifuged at 1500 rpm for 20 min. The supernatant was stored at -20°C until analysis. Control incubations were performed with the compound in the medium alone […]
5.5. Analysis of Samples for Intrinsic Clearance Determination
The analysis of the samples for intrinsic clearance determination was performed by an LC-MS/MS method, using the following conditions:
HPLC Equipment and Conditions
HPLC system Agilent 1100 binary pump (Agilent, Palo Alto, USA)
Autosampler CTC Pal (Alfatech, San Jose, USA)
Analytical column Guard Column SB-C8 4.6 x 12.5 mm, 5 µm (Zorbax)
Column temperature ambient
Mobile phase A 10 mM ammonium formate pH 4.0: acetonitrile (95:5, v:v)
Mobile phase B 10 mM ammonium formate pH 4.0: acetonitrile (5:95, v:v) […]
Gradient conditions Step Total time (min) flow (µL/min) %A % B […]
MS Equipment and Conditions
Mass spectrometer API 4000 Triple Quadrupole (MDS-Sciex, Toronto, […]
Source Turbo Ion Spray (TIS)
Ion mode Positive for fexinidazole and 7-EC.
Negative for 7-HC, 7-HC sulphate and 7-HC glucuronide.

[2] = Irwin's test of general behaviour and body temperature; format: in vivo, rat
Method: Neurobehavioural safety was carried out using the Irwin's test of general behaviour and body temperature in male rats, [41]. […] General behaviour was assessed before treatment and 2 h and 24 h after vehicle or drug administration. A defined set of behavioural observations using an arbitrary intensity scale of 0 (no behavioural change) to 8 was made before treatment and 2 h and 24 h after treatment. Factors present in normal animals (e.g. alertness, mobility) were scored as 4; potentiation or depression of these factors was indicated as higher or lower integers, respectively. Factors absent in normal animals were scored from 0 (normal) to 8.
Exp. Treatment(a) Dose Number of Session (mg/kg) Animals/Group
(a) Three animals/group were dosed each day of study.
6.3.2. Allocation/Randomization
The animals were selected and distributed into experimental groups using random number tables (Fisher and Yates).
6.3.3. Dose Administration
Route and Method Oral, gastric gavage
Dosage volumes were adjusted to the individual animal body weights recorded on the day of […]
6.3.4. Dose Justification
In this study, the top dose of […]
dose went from 500 to 1000 mg/kg/day.
6.4. Experimental procedure
6.4.1. Behavioral observations
Behavior of the animals was assessed before treatment, 2 hours and 24 hours after treatment.
After treatment, animals were put in their home cages. Observation was performed in 5 steps:
• Home cage observations: piloerection, bizarre behavior, exophthalmus, respiration, tremors, twitches, convulsions
Nerviano Medical Sciences

in vivo = conditions: both sexes, beagle, dog, po
Method: In the dog repeated-dose toxicokinetic study, fexinidazole was given orally by gavage once a day for 28 days to five (control and high dose) or three (low and mid dose) beagle dogs/sex/dose at the doses of 0 (control group), 50, 200, or 800 mg/kg/day. The control group received the vehicle alone (same as above). Systemic exposure to fexinidazole and of its sulfoxide and sulfone metabolites was evaluated on days 1, 14 and 28 in the same animals used for the toxicological study. Samples were taken at predose, and 30 min, 1, 2, 4, 8 and 24 h after dosing on days 1, 14, and 28, and in addition at 48 and 72 h after treatment on day 28.

[3] = set-up: method as in ref 3 (report no. 0275-2007-R); conditions: single 50 mg/kg po, ref 3 (report no. 0275-2007-R); cited from earlier work

## CSc1ccc(OCc2ncc([N+](=O)[O-])n2C)cc1 [Fexinidazole, 1-methyl-2-((p-(methylthio)phenoxy)methyl)-5-nitroimidazole]
[1]
  half-life at 1 µM: 13 min
[1]; read-out: CLint in vitro
  CLint scaled at 1 µM: 124 mL/min/kg
  hepatocyte CLint at 1 µM: 51.9 µL/min/1e6 cells
[2]; 100 mg/kg, 2 hours
  Body temperature: 38.3 ± 0.3 °C
[2]; 100 mg/kg, 24 hours
  Body temperature: 38.2 ± 0.3 °C
[2]; 300 mg/kg, 2 hours
  Body temperature: 38.1 ± 0.5 °C
[2]; 300 mg/kg, 24 hours
  Body temperature: 37.9 ± 0.6 °C
[2]; 1000 mg/kg, 2 hours
  Body temperature: 38.3 ± 0.3 °C
[2]; 1000 mg/kg, 24 hours
  Body temperature: 38.1 ± 0.3 °C
[2]; 100, 300 or 1000 mg/kg po
  effects on general behaviour and body temperature: no meaningful effects; also recorded: no effects were observed
[2]; single oral dose
  No-Observed-Effect-Level on general behavior and body temperature: ≥ 1000 mg/kg
In vivo
  NOAEL at 28 days: 200 mg/kg/day
[3]
  AUC0-tlast: 416 ng⋅h/mL
  Cmax: 154 ng/mL
